Molecular target: Tyrosine-protein kinase JAK3 (Homo sapiens) (UniProt P52333)
Experiment: JAK3 kinase inhibitors, dose response, biochemical, purified enzyme (AID 1224891)
Conditions: recombinant JAK3 kinase domain, 32P-ATP radiometric

Sequence of Tyrosine-protein kinase JAK3 (Homo sapiens) (P52333 whole entry, looked up): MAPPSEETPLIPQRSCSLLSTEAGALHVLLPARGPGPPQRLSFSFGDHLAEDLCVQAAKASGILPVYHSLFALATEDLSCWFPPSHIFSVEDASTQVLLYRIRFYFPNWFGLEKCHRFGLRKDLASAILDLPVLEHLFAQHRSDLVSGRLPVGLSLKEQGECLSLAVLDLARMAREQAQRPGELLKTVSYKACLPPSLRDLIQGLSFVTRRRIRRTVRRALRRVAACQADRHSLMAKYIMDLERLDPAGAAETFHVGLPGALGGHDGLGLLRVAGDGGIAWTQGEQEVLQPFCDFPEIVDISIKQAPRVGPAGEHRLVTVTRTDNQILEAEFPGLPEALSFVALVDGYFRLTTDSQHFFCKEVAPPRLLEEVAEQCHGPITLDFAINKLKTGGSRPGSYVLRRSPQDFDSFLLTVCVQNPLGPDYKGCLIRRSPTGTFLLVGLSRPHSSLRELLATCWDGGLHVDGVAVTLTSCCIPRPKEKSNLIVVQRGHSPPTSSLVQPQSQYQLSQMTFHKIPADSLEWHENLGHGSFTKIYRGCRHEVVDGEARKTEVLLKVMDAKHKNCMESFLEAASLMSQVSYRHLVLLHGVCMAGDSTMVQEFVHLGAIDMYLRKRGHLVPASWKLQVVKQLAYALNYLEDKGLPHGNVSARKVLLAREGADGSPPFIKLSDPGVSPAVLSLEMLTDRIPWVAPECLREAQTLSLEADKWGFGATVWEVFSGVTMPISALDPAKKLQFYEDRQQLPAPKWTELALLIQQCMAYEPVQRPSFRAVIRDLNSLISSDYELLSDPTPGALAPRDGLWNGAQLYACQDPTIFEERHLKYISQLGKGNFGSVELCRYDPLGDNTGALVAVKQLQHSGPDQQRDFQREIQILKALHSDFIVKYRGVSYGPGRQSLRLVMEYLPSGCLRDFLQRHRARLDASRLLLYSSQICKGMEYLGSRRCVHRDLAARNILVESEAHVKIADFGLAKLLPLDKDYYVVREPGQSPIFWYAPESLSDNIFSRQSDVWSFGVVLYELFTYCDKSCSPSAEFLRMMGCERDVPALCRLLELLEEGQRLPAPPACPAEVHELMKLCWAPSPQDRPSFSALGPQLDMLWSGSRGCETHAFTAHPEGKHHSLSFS

CCOC(=O)c1c[nH]c2ncnc(-c3cc(NC(=O)CC)ccc3F)c12
IC50: 1.92 µM
